{"source": "patent US6893633B2", "about": "“Methods and compositions for promoting the maturation of monocytes” (Maxim Pharmaceuticals, Inc., priority 2000, dated 2005)", "key": {"T cells": {"tested_on": "T cells", "conditions": "human, 25 μM", "description": "(§1) In human liver, NK-cells as well as NK/T-cells are much more abundant than in peripheral blood. […] All data are the mean±s.e.m. (n=15-30 blood donors)."}, "NK/T cells": {"tested_on": "NK/T cells", "conditions": "human, 25 μM", "description": "as §1"}, "NK cells": {"tested_on": "NK cells", "conditions": "human, 25 μM", "description": "as §1"}, "[1]": {"tested_on": "metastatic melanoma of the liver", "conditions": "histamine phosphate 10 mg/day with G-CSF 200,000 U/kg/day", "description": "A subject presenting with metastatic melanoma of the liver is administered 200,000 U/kg/day of G-CSF and histamine phosphate at a dose of 10 mg/day."}, "malignant melanoma": {"tested_on": "malignant melanoma", "conditions": "melanoma patients with stage III or stage IV disease; cited from earlier work"}, "[2]": {"tested_on": "CD86 antigen on human monocytes", "assay": "CD86 antigen expression on human monocytes after treatment with histamine and/or GM-CSF", "format": "cell-based", "description": "Separation of monocytes. […] Hospital, Göteborg, Sweden. […] Treatment and cell staining."}, "prostate cancer": {"tested_on": "prostate cancer", "conditions": "histamine dihydrochloride 4 mg/day with CSF 300,000 U/kg/day and IL-12 100,000 U/kg/day", "description": "A subject presenting with prostate cancer is administered 300,000 U/kg/day of CSF, 100,000 U/kg/day of IL-12, and histamine dihydrochloride at a dose of 4 mg/day."}, "[3]": {"tested_on": "CD3+ T cells, CD3-/56+ NK cells, and CD3+/56+ NK/T cells", "conditions": "apoptosis induced by autologous MO or GR; p<0.001", "description": "as §1"}, "[4]": {"tested_on": "monocytes HLA-DR expression"}, "Plasmodia species": {"tested_on": "Plasmodia species", "assay": "Treatment of malaria infection", "format": "in vivo", "conditions": "serotonin 6 mg/day with GM-CSF 100,000 U/kg/day, parenteral", "description": "A subject presenting with malaria is parenterally administered GM-CSF at a rate of 100,000 U/kg/day and serotonin at a dosage of 6 mg/day. The composition acts to enhance monocyte maturation, thereby allowing the subject's immune system to eradicate cells infected with Plasmodia species. Specifically, serotonin enhances the monocyte maturation-promoting activity of […]. An increase in the number of dendritic cells presenting antigens associated with Plasmodia is observed. T-cells recognize the Plasmodia antigens, as foreign, attack, and kill the cells. The number of infected cells decreases."}}}
{"compound": "OO", "note": "[hydrogen peroxide]", "values": [{"measurement": "T cells that became apoptotic", "setting": "T cells", "value": "35±5", "unit": "%"}, {"measurement": "NK/T cells that became apoptotic", "setting": "NK/T cells", "value": "78±7", "unit": "%"}, {"measurement": "NK cells that became apoptotic", "setting": "NK cells", "value": "65±7", "unit": "%"}]}
{"compound": "NCCc1c[nH]cn1.O=P(O)(O)O", "note": "[histamine phosphate]", "values": [{"measurement": "tumor mass", "setting": "[1]", "value": "decrease"}]}
{"compound": "granulocyte-macrophage colony-stimulating factor [GM-CSF]", "values": [{"measurement": "median survival time vs matched control patients", "setting": "malignant melanoma", "value": "increased by a factor of three"}, {"measurement": "mean of the monocytes that expressed CD86", "setting": "[2]; overnight incubation (16 hrs), GM-CSF 0.15 μg/ml, histamine dihydrochloride 10 μM", "value": 88, "unit": "%"}]}
{"compound": "Cl.Cl.NCCc1c[nH]cn1", "note": "[histamine, histamine dihydrochloride]", "values": [{"measurement": "tumor mass", "setting": "prostate cancer", "value": "decrease"}, {"measurement": "prevention of apoptosis in all cell types", "setting": "[3]", "value": "significantly prevented"}, {"measurement": "monocytes HLA-DR expression", "setting": "[4]", "value": "up-regulated"}, {"measurement": "intensity of cell surface expression of CD86", "setting": "[2]; histamine treatment alone", "value": "moderately enhanced"}]}
{"compound": "NCCc1c[nH]c2ccc(O)cc12", "note": "[serotonin]", "values": [{"measurement": "number of dendritic cells presenting antigens associated with Plasmodia", "setting": "Plasmodia species", "value": "increase"}, {"measurement": "number of infected cells", "setting": "Plasmodia species", "value": "decreases"}]}
